Non-standard residues stand in square brackets, D forms with d. Residues, ends and D or L forms follow the SMILES beside them.
Columns and labels:
[1] = target: T1, Proteinase K (Parengyodontium album, UniProt P06873); test: Fluorescence anisotropy binding, non-target protease; details: Figure S3A
T1 construct: purchased Sigma-Aldrich
Text: Figure S3. The fluorescent anisotropy evaluation of binding affinity between DPMD peptide with Proteinase K (A), and inhibitor-saturated and blocked trypsin (B) and chymotrypsin (C). Trypsin/Chymotrypsin was saturated and blocked by aprotinin (Yeasen Biotechnology, trypsin/chymotrypsin inhibitor). (D-H) The fluorescent anisotropy evaluation of binding affinity between DPMD peptide with elastase (D), lipase (E), amylase(F), carboxypeptidase (G), albumin (H) and immunoglobulins (I).
Figure S4. The DLS analysis of trypsin, chymotrypsin and DPMD with/without trypsin or chymotrypsin. […]
data acquisition. A series of enzyme solutions with varying concentrations (maximum concentrations of trypsin and chymotrypsin were 20 μM each) were prepared in Tris-HCl buffer (10 mM Tris, 150 mM NaCl, 1 mM EDTA, pH 7.0). These enzyme solutions were added to the 96-well plate and incubated with 100 nM DPMD at room temperature for 30 minutes, with triplicates.
Fluorescence polarization was measured with an excitation wavelength of 470 nm and an emission […]
Plot the fluorescence intensity versus concentration data as scatter plots using Origin software.
For data analysis, fit the concentration-fluorescence polarization data with the logistic function in Origin 2021 software to obtain the fitting curve and determine the half-maximal effective concentration (EC50). […]

[2] = tested on: Chymotrypsin; test: Chymotrypsin activity assay (BTEE); format: biochemical; details: Figure 2C
Description: (§1) and the product's absorbance at […] was dynamically and real-time monitored using a microplate […]
(§2) During the chymotrypsin activity assay, DPMD was incorporated into chymotrypsin. The final concentration of chymotrypsin was set at 10 μg/mL, and the final concentration of DPMD was 5 mg/mL. In the corresponding control group, an equal volume of the buffer solution prepared by the kit was added. Subsequently, the enzyme-peptide mixture was added to the reaction system containing the substrate N-Benzoyl-L-Tyrosine Ethyl Ester (BTEE) at a ratio of 1:100 (where the proportion of the enzyme-peptide mixture solution was 1) for the detection of enzyme activity. The reaction was carried out at 25 ℃, and the product's absorbance at 256 nm was dynamically and real-time monitored using a microplate reader. The experimental result was represented by the enzyme reaction's degree of completion. All the tests were repeated three independent times.
(§3) NIH-3T3 cells were obtained from the National Collection of Authenticated Cell Cultures. HUVECs were obtained from Procell. All cells were maintained in DMEM media at 37°C with 5% CO₂. […] Cell viability was evaluated by the CCK-8 assay (Dojindo) at 1-, 3-, 5-, and 7-days post-treatment. […] The absorbance at 450 nm was recorded using a microplate reader […]

[3] = tested on: postoperative pancreatic fistula (POPF); test: Rat pancreatic common duct transection (lethal) POPF model; format: in vivo
Description: In order to challenge the efficacy of DPMD in emergency treatments for POPF, a lethal rat model of POPF was established through transection of the main pancreatic duct. After 8 h post‐surgical modeling, evidence of severe POPF was observed through the presence of leaky Chymotrypsin (Figure S11, Supporting Information). At this critical juncture, DPMD, LPMD or an equal volume normal saline solution were administered via syringe injection into the abdominal cavity near the pancreas. […] Consequently, all […] rats subjected to the mock treatment succumbed to three days post‐surgical modeling, while LPMD only extended the median survival from 2 days in Ctrl to 3 days in LPMD (Figure 4D). […] Furthermore, both DPMD and LPMD treatments decreased inflammation markers including TNF‐α, IL‐6, IL‐8, IL‐33 sST2, CRP, HMGB1, MPO, PAF, PCT, PGE2 and SAA present in rat serum (Figure 4G).
Without damaging the surrounding pancreatic tissue and capillaries, a transverse incision on the pancreatic splenic duct was performed using micro-scissors. Successful modelling is confirmed by observing external leakage of pancreatic fluid. Place a self-made drainage tube into the rat's abdominal cavity with its outlet positioned at the site of the transected splenic duct, then exit through the abdominal wall and fix it there.
3.14 Construction of rat pancreatic common duct transection model
Animal studies were performed according to the protocols approved by the Institution Guidelines and were approved by the Laboratory Animal Center of Xijing Hospital of The Fourth Military Medical University (No. IACUC-20220308). ALL rats were purchased from the Laboratory Animal Center of The Fourth Military Medical University. The rats were housed under standard specific pathogen-free conditions with a 12h–12h light–dark cycle.
The preoperative preparation and postoperative care for the rat model were consistent with those of the rat pancreatic splenic duct transection pancreatic fistula model, except for the transecting of the pancreatic common duct of the pancreas in modeling. A custom-made drainage tube outlet was positioned around the area where the pancreatic common duct was transected.
3.15 Evaluation of the effect of DPMD on pancreatic duct transection model The male SD rats were randomly assigned to six rats in each group. Prepare a pancreatic duct transection model with a pancreatic fistula and apply 0.3 mL of normal saline, 0.3 ml of DPMD, and 0.3 mL of LPMD at the incision site. After 3days, administer 3 mL of MeO-Succ-Arg-Pro-Tyr-AMO solution (ATT Bioquest) to the pancreatic stump and surrounding tissues for fluorescence imaging in real-time under dark field conditions while using an API filter. Blood and ascitic fluid

[4] = tested on: HUVEC; format: cell-based; details: 48 h
Description: as §1, §2, §3

[5] = tested on: NIH-3T3 cells; format: cell-based; details: 48 h
Description: as §1, §2, §3

T1 sequence (P06873 106-384): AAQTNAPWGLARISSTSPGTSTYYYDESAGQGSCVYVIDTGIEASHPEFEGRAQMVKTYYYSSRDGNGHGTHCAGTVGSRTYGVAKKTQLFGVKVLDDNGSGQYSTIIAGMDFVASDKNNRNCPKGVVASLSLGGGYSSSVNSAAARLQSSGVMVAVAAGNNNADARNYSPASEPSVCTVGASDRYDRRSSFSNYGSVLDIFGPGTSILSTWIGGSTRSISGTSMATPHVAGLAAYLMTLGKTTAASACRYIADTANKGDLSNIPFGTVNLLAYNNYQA

CC[C@@H](C)[C@@H](NC(=O)[C@@H](CCC(N)=O)NC(=O)[C@H](NC(=O)[C@@H](Cc1ccc(O)cc1)NC(=O)CNC(=O)[C@@H](CC(C)C)NC(=O)[C@H](NC(=O)[C@@H](CO)NC(=O)CNC(=O)[C@@H](C)NC(=O)[C@@H](CC(=O)O)NC(=O)[C@@H](C)NC(=O)[C@@H](CCCNC(=N)N)NC(=O)[C@@H](C)NC(=O)[C@@H](CC(=O)O)NC(=O)[C@@H](C)NC(=O)[C@@H](CCCNC(=N)N)NC(=O)[C@@H](C)NC(=O)[C@@H](CC(=O)O)NC(=O)[C@@H](C)NC(=O)[C@@H](CCCNC(=N)N)NC(=O)[C@@H](C)NC(=O)[C@@H](CC(=O)O)NC(=O)[C@@H](C)NC(=O)[C@H](N)CCCNC(=N)N)C(C)C)[C@H](C)CC)C(=O)N[C@H](CCCNC(=N)N)C(=O)O [DPMD, Ac‐(D‐RADA)4‐CONH2] (H-[dR][dA][dD][dA][dR][dA][dD][dA][dR][dA][dD][dA][dR][dA][dD][dA]G[dS][dV][dL]G[dY][dI][dQ][dI][dR]-OH; N-terminus and C-terminus assumed)
binding to Proteinase K (fluorescence anisotropy) [1]: no appreciable binding
suppression of enzymatic activity of Chymotrypsin [2]: almost complete extent
chymotrypsin leakage by fluorescence imaging ([3]; 3 day after treatment, laparotomy, Figure 4B): halted the leakage almost entirely
ascitic and serum amylase and lipase levels ([3]; compared to mock treatment, Figure 4C): statistically significant reduction
deaths during the seven-day observation period ([3]; injection into abdominal cavity 8 h after modeling, all eight mock-treated rats died within three days): none of the rats treated with DPMD died
H&E staining of pancreatic tissue ([3]; three days after surgery, Figure 4E): reduced edema and inflammatory cell infiltration
serum inflammation markers (TNF-α, IL-6, IL-8, IL-33, sST2, CRP, HMGB1, MPO, PAF, PCT, PGE2, SAA) ([3]; within 7 days after surgery, Figure 4G): decreased
cell viability [4]: > 90%
cell viability [5]: > 90%

From article PMC12520456, “Regulating Enzyme Activity via Microaggregates Mediated by Phase Separation” (Advanced Science, 2025)
